Data on four compounds can be found in article PMC8751734 (Cell Chemical Biology, 2022).

The test system of one data set is PL^pro. Conditions: ref Shin et al., 2020 (GRL-0617); Klemm et al., 2020 (rac5c); cited from earlier work.
For data set [1], the system named is SARS-CoV-2. Kind of data set: Activity of ACF components against SARS-CoV-2 in vitro. Format: cell-based.
A short description of data set [2]: Pharmacokinetics study of ACF in CD-1 mice. Format: in vivo.
Data set [3] relates to SARS-CoV-2. It is filed as cell-based.
Data set [4] concerns SARS-CoV-2. To be noted: mouse, in vivo.
The test system of data set [5] is SARS-CoV-2. It is filed as cell-based. The source holds these as a separate data set.
For data set [6], the system named is SARS-CoV-2. Format: cell-based. The source holds these as a separate data set.

For the compound `COc1cc(CNC(=O)C2CCN(C(C)c3cccc4ccccc34)CC2)ccn1` (racemic) [rac5c], the reported activity result in the data set with PL^pro is “active at the micromolar range”.

Regarding `Cc1ccc(N)cc1C(=O)N[C@H](C)c1cccc2ccccc12` [GRL-0617], in the data set on PL^pro, the reported activity entry is recorded as “active at the micromolar range”.

Take `Nc1ccc2cc3ccc(N)cc3nc2c1` [PF, 3,6-diaminoacridine]: in the data set on SARS-CoV-2 [1], the “activity against SARS-CoV-2 in vitro” value was “active”. Further, in data set [2] (IV 15 mg/kg and PO 100 mg/kg of commercial ACF), the “levels / exposure in lungs” value was “very high”. Besides, the oral bioavailability result in data set [2] (components of commercial ACF) is “much higher bioavailability”.

For `CCC(CC)COC(=O)[C@H](C)N[P@](=O)(OC[C@H]1O[C@@](C#N)(c2ccc3c(N)ncnn23)[C@H](O)[C@@H]1O)Oc1ccccc1` [remdesivir], the “elimination of SARS-CoV-2 (confocal microscopy)” value in the data set on SARS-CoV-2 [3] is “nearly complete elimination”. In the data set on SARS-CoV-2 [4], the “adverse effects in mice” value was “No adverse effects were observed” and the “decrease of viral loads in the brain” value was 2–3 orders of magnitude. Besides, the “inhibition of SARS-CoV-2 replication (confocal microscopy)” value with SARS-CoV-2 [5] was “inferior compared with 500 nM ACF”. In the data set on SARS-CoV-2 [6], the “virus yields in HAE cultures compared with PBS/untreated control” value is listed as “significantly inhibited virus yields”.
